Among the data in ChEMBL document CHEMBL1135548 (J Med Chem, 2002) are Ki and IC50 values, retold here.

What all share (experiment): biochemical
Test [1] has as its target T1, Adenosine receptor A2b (Homo sapiens, UniProt P29275).
T1 sequence (P29275 whole entry): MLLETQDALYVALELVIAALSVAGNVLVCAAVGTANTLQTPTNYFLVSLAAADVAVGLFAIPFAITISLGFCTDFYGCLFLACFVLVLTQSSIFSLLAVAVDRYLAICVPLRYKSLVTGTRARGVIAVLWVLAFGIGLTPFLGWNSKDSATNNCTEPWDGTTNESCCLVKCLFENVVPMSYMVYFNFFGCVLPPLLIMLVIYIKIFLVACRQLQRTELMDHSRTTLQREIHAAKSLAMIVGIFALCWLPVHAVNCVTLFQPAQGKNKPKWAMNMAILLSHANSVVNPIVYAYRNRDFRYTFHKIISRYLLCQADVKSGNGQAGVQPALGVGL

Test [2] concerns the target T2, Adenosine receptor A2a (Homo sapiens, UniProt P29274).
For test [3], the target named is T2, Adenosine receptor A2a. This is another data set of the same source.
Test [4] addresses T3, Adenosine receptor A1 (Homo sapiens, UniProt P30542).
T3 sequence (P30542 whole entry): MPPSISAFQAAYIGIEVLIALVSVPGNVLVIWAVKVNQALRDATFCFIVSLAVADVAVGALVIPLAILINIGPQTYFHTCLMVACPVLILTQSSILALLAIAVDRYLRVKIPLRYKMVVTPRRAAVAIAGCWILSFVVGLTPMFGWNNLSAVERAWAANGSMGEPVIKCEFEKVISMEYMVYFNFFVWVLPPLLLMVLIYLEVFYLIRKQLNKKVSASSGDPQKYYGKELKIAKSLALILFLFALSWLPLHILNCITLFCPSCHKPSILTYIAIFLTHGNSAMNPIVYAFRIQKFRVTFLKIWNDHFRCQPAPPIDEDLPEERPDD
Description: Inhibition of [3H]DPCPX binding to human Adenosine A1 receptor expressed in CHO cells; Range 256-620

Test [5] addresses T1, Adenosine receptor A2b. This is another data set of the same source.
Description: Inhibition of [3H]DPCPX binding to human Adenosine A2B receptor expressed in HEK cells; range 640-1100
In test [6] the target is T3, Adenosine receptor A1. This is another data set of the same source.
Test [7] has as its target T2, Adenosine receptor A2a. The source holds these as a separate data set.
Description: Inhibition of [3H]CGS-21680 binding to human Adenosine A2a receptor expressed in HEK293 cells; Range 438-749
For test [8], the target named is T3, Adenosine receptor A1. It counts as cell-based, CHO.
Description: Inhibition of [3H]DPCPX binding to human Adenosine A1 receptor expressed in CHO cells
For test [9], the target named is T2, Adenosine receptor A2a. This is another data set of the same source.
Description: Inhibition of [3H]CGS-21680 binding to human Adenosine A2A receptor expressed in HEK293 cells
The target in test [10] is T3, Adenosine receptor A1. This is another data set of the same source.
The target of test [11] is T1, Adenosine receptor A2b. This is another data set of the same source.
Description: Inhibition of [3H]DPCPX binding to human Adenosine A2B receptor expressed in HEK cells; Range 3580-12400

A value given as a limit tells only on which side of the number the result lay.

One may read the Ki as the equilibrium dissociation constant of an inhibitor or competing ligand from its target. A high value points to lower affinity. By IC50 is commonly meant the midpoint of a concentration-inhibition curve. A high value points to weaker potency in that assay.

T2 sequence (P29274 whole entry): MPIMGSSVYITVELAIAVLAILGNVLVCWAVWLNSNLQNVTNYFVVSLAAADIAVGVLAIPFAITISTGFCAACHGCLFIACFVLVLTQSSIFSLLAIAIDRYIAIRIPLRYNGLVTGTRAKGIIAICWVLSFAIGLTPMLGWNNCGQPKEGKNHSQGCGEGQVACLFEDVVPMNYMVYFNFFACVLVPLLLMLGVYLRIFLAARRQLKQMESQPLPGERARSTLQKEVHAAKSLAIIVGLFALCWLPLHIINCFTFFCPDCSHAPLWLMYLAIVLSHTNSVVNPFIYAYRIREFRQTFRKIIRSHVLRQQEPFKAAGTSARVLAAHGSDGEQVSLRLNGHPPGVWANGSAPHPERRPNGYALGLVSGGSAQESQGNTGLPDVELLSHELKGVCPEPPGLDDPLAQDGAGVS

With `CCCCc1nc2[nH]cnc2c2nc(-c3ccc(OC)cc3)nn12`, the values for the Ki on Adenosine receptor A2b [1], on Adenosine receptor A2a [2] and on Adenosine receptor A1 [4] were 1030 nM, 892 nM and 398 nM, respectively. The IC50 against Adenosine receptor A2a [3] was determined as 1600 nM.

At Adenosine receptor A2a [3], `CCCCc1nc2[nH]cnc2c2nc(-c3ccco3)nn12` returned an IC50 of 210 nM.

With `CCCCc1nc2[nH]cnc2c2nc(Cc3ccccc3)nn12`, the IC50 on Adenosine receptor A2a [3] was 47 nM. As to `Cc1nc2[nH]cnc2c2nc(-c3ccccc3)nn12`, it took 550 nM to reach half-maximal inhibition on Adenosine receptor A2a [3] (IC50).

As for `CCCCc1nc2nc[nH]c2c2nc(-c3ccc(OCC)cc3)nn12`, on Adenosine receptor A2a [3], inhibition was half-maximal at 3800 nM (IC50). The Ki at Adenosine receptor A2b [5] was 838 nM; at Adenosine receptor A1 [6], 413 nM; on Adenosine receptor A2a [7], 572 nM. In the case of `CCCCc1nc2nc[nH]c2c2nc(-c3ccc(O)cc3)nn12`, the IC50 against Adenosine receptor A2a [3] came out at 58 nM.

On to `COc1ccc(-c2csc3nc(=O)cc(N)n23)cc1`, for which the Ki on Adenosine receptor A1 [8] and on Adenosine receptor A2a [9] was above 10000 nM in each case. In the case of `CCCCc1nc2nc[nH]c2c2nc(-c3ccc(Br)cc3)nn12`, the IC50 against Adenosine receptor A2a [3] was 3300 nM. The compound `CCCCCc1nc2nc[nH]c2c2nc(-c3ccccc3)nn12` yielded an IC50 at Adenosine receptor A2a [3] of 200 nM. Consider `CCCCCCc1nc2nc[nH]c2c2nc(-c3ccccc3)nn12`, for which, on Adenosine receptor A2a [3], the IC50 is 7800 nM. This IC50 lies about 39-fold higher than the previous one. Take `CCc1nc2[nH]cnc2c2nc(-c3ccccc3)nn12`: the IC50 against Adenosine receptor A2a [3] is 360 nM. The compound `CCCCc1nc2nc[nH]c2c2nc(-c3ccc(F)cc3)nn12` gave an IC50 at Adenosine receptor A2a [3] of 510 nM.

For `CCCCc1nc2[nH]cnc2c2nc(-c3ccc(N(C)C)cc3)nn12`, the Ki on Adenosine receptor A1 [10] stood at 1310 nM; on Adenosine receptor A2b [11] it was 6660 nM.

`CCCCc1nc2[nH]cnc2c2nc(-c3ccc(C)cc3)nn12` had an IC50 against Adenosine receptor A2a [3] of 180 nM.

For the compound `CCCCc1nc2[nH]cnc2c2nc(-c3cccc(OC)c3)nn12`, the half-inhibitory concentration (IC50) against Adenosine receptor A2a [3] came out at 67 nM.

`CCCCc1nc2nc[nH]c2c2nc(-c3cccc(Cl)c3)nn12` had a half-inhibitory concentration (IC50) against Adenosine receptor A2a [3] of 56 nM. Consider `CCCCc1nc2[nH]cnc2c2nc(C)nn12`, for which the IC50 at Adenosine receptor A2a [3] came out at 46 nM.

The compound `CCCCc1nc2[nH]cnc2c2nc(-c3cc(OC)c(OC)c(OC)c3)nn12` came in with an IC50 on Adenosine receptor A2a [3] of 2500 nM.

As for `CCCCc1nc2[nH]cnc2c2nc(-c3cccnc3)nn12`, at Adenosine receptor A2a [3], the IC50 turned out to be 900 nM. Against the preceding compound, the IC50 is about 2.8-fold lower. On Adenosine receptor A2a [3], `CCCc1nc2nc[nH]c2c2nc(-c3ccccc3)nn12` had an IC50 of 120 nM. This IC50 lies about 7.5-fold lower than the previous one. At Adenosine receptor A2a [3], `CCCCc1nc2[nH]cnc2c2nc(-c3cccc(C)c3)nn12` yielded a half-inhibitory concentration (IC50) of 188 nM. This IC50 is about 1.6-fold higher than that of the compound before.
